From patent US8969516B2, “Method of hydrolysis of peptide bond” (priority 2006, dated 2015)

Experiment: MALDI-TOF screening of Ni^2+ dependent hydrolysis in a combinatorial peptide library
Assay type: physicochemical
Conditions: Ni^2+ 2 mM, pH 8.2, 10 mM Tris, score=24/tm
From the text: The sequence CH3CO-Gly-Ala-Ser/Thr-X-His-Z-Lys-Phe-Leu-NH2 was designed so that the fixed R1 and R2 sequences, CH3CO-Gly-Ala, and Lys-Phe-Leu-NH2, respectively, allowed optimal detection by MALDI-TOF mass spectrometry of substrates as well as expected products, Ser/Thr-X-His-Z-Lys-Phe-Leu-NH2 and assured separation between the clusters of signals for substrates and products in sublibraries (see below).
Residues in position X included all amino acids commonly present in proteins, except for Asp, Glu, and Cys. The former two contain carboxylates in their side chains, which may bind Ni^2+ in a way which would quench or slow down the hydrolysis reaction. The Cys residue may do the same, and also may engage in side reactions with Ni^2+ ions, including redox processes (for example see Bal and Kasprzak, Toxicol. Lett. 2002, 127, 55-62). Only the Cys residue was eliminated from position Z, for the same reasons.
The synthesis of the library was accomplished on a RINK amide resin (Novabiochem) on a 800 mg scale, according to a typical Fmoc protocol (Fields, Meth. Enzymol. Vol. 289). The resin-attached Leu-Phe-Lys peptide was synthesised first and coupled with the isokinetic mixture of 19 amino acids selected for position Z, and then with the H is residue. The resin carrying the library of pentapeptides was divided into Ser and Thr halves at this stage, and each of these halves into 17 portions, which were coupled with individual amino acids selected for position X. The coupling with Ser or Thr as appropriate, additions of Ala and Gly residues, acetylation of Gly, deprotection and cleavage from the resin were accomplished subsequently. Each of the resulting 34 samples of sublibraries randomized at position X was separated into two portions, one for the reaction at 37° C. and another for the reaction at 45° C. The hydrolysis reactions were accomplished in 10 mM Tris buffers at pH 8.2. The total concentrations of peptide mixtures and Ni^2+ ions were 1 mM and 2 mM, respectively. The pH for the reaction was chosen as selective for highly reactive sequences.
The detection of reaction products was accomplished with the use of a MALDI-TOF mass spectrometer (Micromass). The aliquots were removed from reaction mixtures and measured by MS at 2, 4, 6, and 8 hours of incubation. The progress of reaction was evaluated by visual detection in mass spectra of appearance of signals corresponding to expected products of hydrolysis, Ser/Thr-X-His-Z-Lys-Phe-Leu-NH2, at given measurement times, tm. […] Also the decrease of signals of substrates was controlled in these cases.
Residues X and Z were then sorted according to various molecular parameters, describing their physical properties (Carugo, In Silico Biol. 2003, 3, 0035). […] The Ser library provided a higher number of reactive peptides than the Thr library. Following the additivity of effects, the scores were also summed up in lines and columns of Table 1A-D, thereby creating final rankings for preferred substitutions in positions X and Z.

[1] = CH3CO-Gly-Ala-Thr-X-His-Z-Lys-Phe-Leu-NH2 library, 37° C.
[2] = CH3CO-Gly-Ala-Thr-X-His-Z-Lys-Phe-Leu-NH2 library, 45° C.
[3] = CH3CO-Gly-Ala-Ser-X-His-Z-Lys-Phe-Leu-NH2 library, 37° C.
[4] = CH3CO-Gly-Ala-Ser-X-His-Z-Lys-Phe-Leu-NH2 library, 45° C.

| Substance | hydrolysis score from MALDI-TOF screening [1] | hydrolysis score from MALDI-TOF screening [2] | hydrolysis score from MALDI-TOF screening [3] | hydrolysis score from MALDI-TOF screening [4] |
| --- | --- | --- | --- | --- |
| Ac-GATTHKKFL-NH2 [TTHK] | 0 (a score of 0 if no trace of the product of hydrolysis was seen after 8 hours of incubation) | 0 (a score of 0 if no trace of the product of hydrolysis was seen after 8 hours of incubation) |  |  |
| Ac-GATHHNKFL-NH2 [THHN] | 0 (a score of 0 if no trace of the product of hydrolysis was seen after 8 hours of incubation) | 0 (a score of 0 if no trace of the product of hydrolysis was seen after 8 hours of incubation) |  |  |
| Ac-GASWHYKFL-NH2 [SWHY] |  |  | 0 (a score of 0 if no trace of the product of hydrolysis was seen after 8 hours of incubation) | 6 (a score of 6 for detection at 4 hours) |
| Ac-GATNHKKFL-NH2 [TNHK] | 0 (a score of 0 if no trace of the product of hydrolysis was seen after 8 hours of incubation) | 0 (a score of 0 if no trace of the product of hydrolysis was seen after 8 hours of incubation) |  |  |
| Ac-GATAHHKFL-NH2 [TAHH] | 0 (a score of 0 if no trace of the product of hydrolysis was seen after 8 hours of incubation) | 0 (a score of 0 if no trace of the product of hydrolysis was seen after 8 hours of incubation) |  |  |
| Ac-GATYHMKFL-NH2 [TYHM] | 0 (a score of 0 if no trace of the product of hydrolysis was seen after 8 hours of incubation) | 0 (a score of 0 if no trace of the product of hydrolysis was seen after 8 hours of incubation) |  |  |
| Ac-GASNHHKFL-NH2 [SNHH] |  |  | 0 (a score of 0 if no trace of the product of hydrolysis was seen after 8 hours of incubation) | 3 (a score of 3 for detection at 8 hours) |
| Ac-GATNHVKFL-NH2 [TNHV] | 0 (a score of 0 if no trace of the product of hydrolysis was seen after 8 hours of incubation) | 0 (a score of 0 if no trace of the product of hydrolysis was seen after 8 hours of incubation) |  |  |
| Ac-GASGHNKFL-NH2 [SGHN] |  |  | 0 (a score of 0 if no trace of the product of hydrolysis was seen after 8 hours of incubation) | 0 (a score of 0 if no trace of the product of hydrolysis was seen after 8 hours of incubation) |
| Ac-GATQHQKFL-NH2 [TQHQ] | 0 (a score of 0 if no trace of the product of hydrolysis was seen after 8 hours of incubation) | 0 (a score of 0 if no trace of the product of hydrolysis was seen after 8 hours of incubation) |  |  |
| Ac-GASYHAKFL-NH2 [SYHA] |  |  | 0 (a score of 0 if no trace of the product of hydrolysis was seen after 8 hours of incubation) | 0 (a score of 0 if no trace of the product of hydrolysis was seen after 8 hours of incubation) |
| Ac-GATRHYKFL-NH2 [TRHY] | 4 (a score of 4 for detection at 6 hours) | 6 (a score of 6 for detection at 4 hours) |  |  |
| Ac-GASRHPKFL-NH2 [SRHP] |  |  | 0 (a score of 0 if no trace of the product of hydrolysis was seen after 8 hours of incubation) | 0 (a score of 0 if no trace of the product of hydrolysis was seen after 8 hours of incubation) |
| Ac-GASQHMKFL-NH2 [SQHM] |  |  | 0 (a score of 0 if no trace of the product of hydrolysis was seen after 8 hours of incubation) | 3 (a score of 3 for detection at 8 hours) |
| Ac-GASIHVKFL-NH2 [SIHV] |  |  | 3 (a score of 3 for detection at 8 hours) | 3 (a score of 3 for detection at 8 hours) |
| Ac-GATYHNKFL-NH2 [TYHN] | 0 (a score of 0 if no trace of the product of hydrolysis was seen after 8 hours of incubation) | 0 (a score of 0 if no trace of the product of hydrolysis was seen after 8 hours of incubation) |  |  |

| Substance | hydrolysis score from MALDI-TOF screening [1] | hydrolysis score from MALDI-TOF screening [2] | hydrolysis score from MALDI-TOF screening [3] | hydrolysis score from MALDI-TOF screening [4] |
| --- | --- | --- | --- | --- |
| Ac-GASLHAKFL-NH2 [SLHA] |  |  | 0 (a score of 0 if no trace of the product of hydrolysis was seen after 8 hours of incubation) | 0 (a score of 0 if no trace of the product of hydrolysis was seen after 8 hours of incubation) |
| Ac-GATMHWKFL-NH2 [TMHW] | 3 (a score of 3 for detection at 8 hours) | 3 (a score of 3 for detection at 8 hours) |  |  |
| Ac-GASQHIKFL-NH2 [SQHI] |  |  | 6 (a score of 6 for detection at 4 hours) | 6 (a score of 6 for detection at 4 hours) |
| Ac-GASVHQKFL-NH2 [SVHQ] |  |  | 0 (a score of 0 if no trace of the product of hydrolysis was seen after 8 hours of incubation) | 0 (a score of 0 if no trace of the product of hydrolysis was seen after 8 hours of incubation) |
| Ac-GATPHFKFL-NH2 [TPHF] |  | 0 (a score of 0 if no trace of the product of hydrolysis was seen after 8 hours of incubation) |  |  |
| Ac-GATSHLKFL-NH2 [TSHL] | 0 (a score of 0 if no trace of the product of hydrolysis was seen after 8 hours of incubation) | 0 (a score of 0 if no trace of the product of hydrolysis was seen after 8 hours of incubation) |  |  |
| Ac-GASRHKKFL-NH2 [SRHK] |  |  | 6 (a score of 6 for detection at 4 hours) | 12 (a score of 12, if it was seen to be partially hydrolysed at 2 hours) |
| Ac-GATIHAKFL-NH2 [TIHA] | 0 (a score of 0 if no trace of the product of hydrolysis was seen after 8 hours of incubation) | 0 (a score of 0 if no trace of the product of hydrolysis was seen after 8 hours of incubation) |  |  |
| Ac-GASGHYKFL-NH2 [SGHY] |  |  | 0 (a score of 0 if no trace of the product of hydrolysis was seen after 8 hours of incubation) | 0 (a score of 0 if no trace of the product of hydrolysis was seen after 8 hours of incubation) |
| Ac-GATYHIKFL-NH2 [TYHI] | 0 (a score of 0 if no trace of the product of hydrolysis was seen after 8 hours of incubation) | 0 (a score of 0 if no trace of the product of hydrolysis was seen after 8 hours of incubation) |  |  |
| Ac-GATMHSKFL-NH2 [TMHS] | 0 (a score of 0 if no trace of the product of hydrolysis was seen after 8 hours of incubation) | 0 (a score of 0 if no trace of the product of hydrolysis was seen after 8 hours of incubation) |  |  |
| Ac-GATFHNKFL-NH2 [TFHN] | 0 (a score of 0 if no trace of the product of hydrolysis was seen after 8 hours of incubation) | 0 (a score of 0 if no trace of the product of hydrolysis was seen after 8 hours of incubation) |  |  |
| Ac-GASPHAKFL-NH2 [SPHA] |  |  | 0 (a score of 0 if no trace of the product of hydrolysis was seen after 8 hours of incubation) | 0 (a score of 0 if no trace of the product of hydrolysis was seen after 8 hours of incubation) |
| Ac-GATAHYKFL-NH2 [TAHY] | 0 (a score of 0 if no trace of the product of hydrolysis was seen after 8 hours of incubation) | 0 (a score of 0 if no trace of the product of hydrolysis was seen after 8 hours of incubation) |  |  |
| Ac-GATMHNKFL-NH2 [TMHN] | 0 (a score of 0 if no trace of the product of hydrolysis was seen after 8 hours of incubation) | 0 (a score of 0 if no trace of the product of hydrolysis was seen after 8 hours of incubation) |  |  |
